Measurements reported in PubChem BioAssay (NCI).
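Interpolation was linear, between the two tested concentrations surrounding the appropriate level; five concentrations were tested over 48 hours in 96-well plates. TGI: concentration producing complete growth inhibition.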

What was measured:
Assay in all cases: NCI tumour cell line growth inhibition, 48 h
SW-620 colon = test system: SW-620 colon
NCI-H23 lung = test system: NCI-H23 lung
CCRF-CEM leukemia = test system: CCRF-CEM leukemia
SNB-19 CNS = test system: SNB-19 CNS
HS 578T breast = test system: HS 578T breast
SK-MEL-2 melanoma = test system: SK-MEL-2 melanoma
T-47D breast = test system: T-47D breast
NCI-H226 lung = test system: NCI-H226 lung
MDA-N = test system: MDA-N
MDA-MB-435 = test system: MDA-MB-435
M14 melanoma = test system: M14 melanoma
MOLT-4 leukemia = test system: MOLT-4 leukemia
NCI/ADR-RES ovarian = test system: NCI/ADR-RES ovarian
U251 CNS = test system: U251 CNS
UO-31 renal = test system: UO-31 renal
EKVX NSCLC = test system: EKVX NSCLC
SF-539 CNS = test system: SF-539 CNS
RXF 393 renal = test system: RXF 393 renal
UACC-62 melanoma = test system: UACC-62 melanoma
K-562 leukemia = test system: K-562 leukemia
HOP-62 NSCLC = test system: HOP-62 NSCLC
PC-3 prostate = test system: PC-3 prostate
RPMI-8226 leukemia = test system: RPMI-8226 leukemia
SN12C renal = test system: SN12C renal
A498 renal = test system: A498 renal
NCI-H460 lung = test system: NCI-H460 lung
TK-10 renal = test system: TK-10 renal
DU-145 prostate = test system: DU-145 prostate
NCI-H522 lung = test system: NCI-H522 lung
OVCAR-4 ovarian = test system: OVCAR-4 ovarian
HCT-116 colon = test system: HCT-116 colon
SF-268 CNS = test system: SF-268 CNS
SK-OV-3 ovarian = test system: SK-OV-3 ovarian
HL-60(TB) leukemia = test system: HL-60(TB) leukemia
MDA-MB-231 breast = test system: MDA-MB-231 breast
HT29 colon = test system: HT29 colon
CAKI-1 renal = test system: CAKI-1 renal
SF-295 CNS = test system: SF-295 CNS
HCT-15 colon = test system: HCT-15 colon
HCC-2998 colon = test system: HCC-2998 colon
OVCAR-3 ovarian = test system: OVCAR-3 ovarian
IGROV1 ovarian = test system: IGROV1 ovarian
BT-549 breast = test system: BT-549 breast
MALME-3M melanoma = test system: MALME-3M melanoma
COLO 205 colon = test system: COLO 205 colon
A549 NSCLC = test system: A549 NSCLC
SK-MEL-5 melanoma = test system: SK-MEL-5 melanoma
MCF7 breast = test system: MCF7 breast
LOX IMVI melanoma = test system: LOX IMVI melanoma
786-0 renal = test system: 786-0 renal
ACHN renal = test system: ACHN renal
OVCAR-5 ovarian = test system: OVCAR-5 ovarian
KM12 colon = test system: KM12 colon
SR leukemia = test system: SR leukemia
SNB-75 CNS = test system: SNB-75 CNS
OVCAR-8 ovarian = test system: OVCAR-8 ovarian
UACC-257 melanoma = test system: UACC-257 melanoma
HOP-92 NSCLC = test system: HOP-92 NSCLC
SK-MEL-28 melanoma = test system: SK-MEL-28 melanoma

`CC(=O)OCC1(C)C(O)CCC2(C)C1CCC1CC3CC12CCC3(O)CO` (stereo not given) showed a TGI (SW-620 colon) of over 100 µM, a TGI (NCI-H23 lung) of over 100 µM and a TGI (CCRF-CEM leukemia) of over 100 µM. It also gave a TGI (SNB-19 CNS) of over 100 µM, a TGI (HS 578T breast) of over 100 µM and a TGI (SK-MEL-2 melanoma) of over 100 µM. It also gave a TGI (T-47D breast) of over 100 µM, a TGI (NCI-H226 lung) of over 100 µM and a TGI (MDA-N) of over 100 µM. For the same compound, the TGI (MDA-MB-435) was over 100 µM, the TGI (M14 melanoma) was over 100 µM and the TGI (MOLT-4 leukemia) was over 100 µM. For the same compound, the TGI (NCI/ADR-RES ovarian) was over 100 µM, the TGI (U251 CNS) was over 100 µM and the TGI (UO-31 renal) was over 100 µM. It also gave a TGI (EKVX NSCLC) of over 100 µM, a TGI (SF-539 CNS) of over 100 µM and a TGI (RXF 393 renal) of over 100 µM. For the same compound, the TGI (UACC-62 melanoma) was over 100 µM, the TGI (K-562 leukemia) was over 100 µM and the TGI (HOP-62 NSCLC) was over 100 µM. It also gave a TGI (PC-3 prostate) of over 100 µM, a TGI (RPMI-8226 leukemia) of over 100 µM and a TGI (SN12C renal) of over 100 µM. It also gave a TGI (A498 renal) of 8.59 µM, a TGI (NCI-H460 lung) of over 100 µM and a TGI (TK-10 renal) of over 100 µM. It also gave a TGI (DU-145 prostate) of over 100 µM, a TGI (NCI-H522 lung) of over 100 µM and a TGI (OVCAR-4 ovarian) of over 100 µM. It also gave a TGI (HCT-116 colon) of over 100 µM, a TGI (SF-268 CNS) of over 100 µM and a TGI (SK-OV-3 ovarian) of over 100 µM. It also gave a TGI (HL-60(TB) leukemia) of over 100 µM, a TGI (MDA-MB-231 breast) of over 100 µM and a TGI (HT29 colon) of over 100 µM. For the same compound, the TGI (CAKI-1 renal) was over 100 µM, the TGI (SF-295 CNS) was over 100 µM and the TGI (HCT-15 colon) was over 100 µM. For the same compound, the TGI (HCC-2998 colon) was over 100 µM, the TGI (OVCAR-3 ovarian) was over 100 µM and the TGI (IGROV1 ovarian) was over 100 µM. The TGI (BT-549 breast) was over 100 µM, the TGI (MALME-3M melanoma) was over 100 µM and the TGI (COLO 205 colon) was over 100 µM. For the same compound, the TGI (A549 NSCLC) was over 100 µM, the TGI (SK-MEL-5 melanoma) was over 100 µM and the TGI (MCF7 breast) was over 100 µM. For the same compound, the TGI (LOX IMVI melanoma) was over 100 µM, the TGI (786-0 renal) was over 100 µM and the TGI (ACHN renal) was over 100 µM. It also gave a TGI (OVCAR-5 ovarian) of over 100 µM, a TGI (KM12 colon) of over 100 µM and a TGI (SR leukemia) of over 29.4 µM. It also gave a TGI (SNB-75 CNS) of over 100 µM, a TGI (OVCAR-8 ovarian) of over 100 µM and a TGI (UACC-257 melanoma) of over 100 µM. It also gave a TGI (HOP-92 NSCLC) of over 100 µM and a TGI (SK-MEL-28 melanoma) of over 100 µM.
Work on `C[C@@H]1S[C@H](c2c(F)cccc2Cl)n2c1nc1ccccc12` yielded a TGI (SW-620 colon) of 27.2 µM, a TGI (NCI-H23 lung) of 28 µM and a TGI (CCRF-CEM leukemia) of 42.6 µM. For the same compound, the TGI (SNB-19 CNS) was 88.9 µM, the TGI (HS 578T breast) was 41.6 µM and the TGI (SK-MEL-2 melanoma) was 29.3 µM. The TGI (T-47D breast) was 79.5 µM, the TGI (NCI-H226 lung) was 37 µM and the TGI (MDA-N) was 21.5 µM. The TGI (MDA-MB-435) was 25.1 µM, the TGI (M14 melanoma) was 42 µM and the TGI (MOLT-4 leukemia) was 32 µM. For the same compound, the TGI (NCI/ADR-RES ovarian) was 31.4 µM, the TGI (U251 CNS) was 22.7 µM and the TGI (UO-31 renal) was 24.2 µM. For the same compound, the TGI (EKVX NSCLC) was 56 µM, the TGI (SF-539 CNS) was 28.9 µM and the TGI (RXF 393 renal) was 28.8 µM. For the same compound, the TGI (UACC-62 melanoma) was 29.7 µM, the TGI (K-562 leukemia) was over 100 µM and the TGI (HOP-62 NSCLC) was 29.4 µM. It also gave a TGI (PC-3 prostate) of 23.7 µM, a TGI (RPMI-8226 leukemia) of 40.2 µM and a TGI (SN12C renal) of 29 µM. For the same compound, the TGI (TK-10 renal) was over 100 µM, the TGI (DU-145 prostate) was over 100 µM and the TGI (OVCAR-4 ovarian) was 37 µM. For the same compound, the TGI (HCT-116 colon) was 16.5 µM, the TGI (SF-268 CNS) was 36.3 µM and the TGI (SK-OV-3 ovarian) was 55.9 µM. For the same compound, the TGI (MDA-MB-231 breast) was 27 µM, the TGI (HT29 colon) was 29.3 µM and the TGI (CAKI-1 renal) was 76.5 µM. It also gave a TGI (SF-295 CNS) of 42 µM, a TGI (HCT-15 colon) of 19.3 µM and a TGI (HCC-2998 colon) of 26.5 µM. It also gave a TGI (OVCAR-3 ovarian) of 28.2 µM, a TGI (IGROV1 ovarian) of 59.5 µM and a TGI (BT-549 breast) of 28.2 µM. For the same compound, the TGI (MALME-3M melanoma) was 30.6 µM, the TGI (COLO 205 colon) was 23.6 µM and the TGI (A549 NSCLC) was 61.3 µM. The TGI (MCF7 breast) was 81.8 µM, the TGI (LOX IMVI melanoma) was 25.3 µM and the TGI (786-0 renal) was 28.4 µM. For the same compound, the TGI (ACHN renal) was over 100 µM, the TGI (OVCAR-5 ovarian) was over 100 µM and the TGI (KM12 colon) was 20.5 µM. For the same compound, the TGI (SR leukemia) was 67.7 µM, the TGI (SNB-75 CNS) was 60.8 µM and the TGI (OVCAR-8 ovarian) was over 100 µM. For the same compound, the TGI (UACC-257 melanoma) was 38.5 µM and the TGI (SK-MEL-28 melanoma) was 26.5 µM.
With `[N-]=[N+]=NC1C(O)C(CO)OC1n1ccc(N)nc1=O` (stereo not given) the TGI (SW-620 colon) was over 625 µM, the TGI (NCI-H23 lung) was over 625 µM and the TGI (SNB-19 CNS) was over 625 µM. For the same compound, the TGI (HS 578T breast) was over 625 µM, the TGI (SK-MEL-2 melanoma) was over 585 µM and the TGI (T-47D breast) was over 189 µM. For the same compound, the TGI (NCI-H226 lung) was over 625 µM, the TGI (MDA-N) was over 625 µM and the TGI (MDA-MB-435) was over 625 µM. The TGI (M14 melanoma) was 186 µM, the TGI (MOLT-4 leukemia) was over 174 µM and the TGI (NCI/ADR-RES ovarian) was over 625 µM. For the same compound, the TGI (U251 CNS) was over 625 µM, the TGI (UO-31 renal) was 616 µM and the TGI (EKVX NSCLC) was over 625 µM. For the same compound, the TGI (SF-539 CNS) was 455 µM, the TGI (RXF 393 renal) was over 602 µM and the TGI (UACC-62 melanoma) was 350 µM. The TGI (K-562 leukemia) was over 625 µM, the TGI (HOP-62 NSCLC) was over 625 µM and the TGI (PC-3 prostate) was over 625 µM. For the same compound, the TGI (RPMI-8226 leukemia) was over 625 µM, the TGI (SN12C renal) was 615 µM and the TGI (A498 renal) was over 625 µM. For the same compound, the TGI (NCI-H460 lung) was over 625 µM, the TGI (TK-10 renal) was over 625 µM and the TGI (DU-145 prostate) was over 625 µM. It also gave a TGI (NCI-H522 lung) of over 625 µM, a TGI (OVCAR-4 ovarian) of over 625 µM and a TGI (HCT-116 colon) of over 625 µM. It also gave a TGI (SF-268 CNS) of over 625 µM, a TGI (SK-OV-3 ovarian) of over 625 µM and a TGI (HL-60(TB) leukemia) of 25.3 µM. It also gave a TGI (MDA-MB-231 breast) of over 564 µM, a TGI (HT29 colon) of over 625 µM and a TGI (CAKI-1 renal) of over 625 µM. It also gave a TGI (SF-295 CNS) of over 625 µM, a TGI (HCT-15 colon) of over 625 µM and a TGI (HCC-2998 colon) of over 581 µM. For the same compound, the TGI (OVCAR-3 ovarian) was over 595 µM, the TGI (IGROV1 ovarian) was over 625 µM and the TGI (BT-549 breast) was over 625 µM. For the same compound, the TGI (MALME-3M melanoma) was over 625 µM, the TGI (COLO 205 colon) was over 568 µM and the TGI (A549 NSCLC) was over 625 µM. The TGI (SK-MEL-5 melanoma) was over 625 µM, the TGI (MCF7 breast) was over 625 µM and the TGI (LOX IMVI melanoma) was over 625 µM. It also gave a TGI (786-0 renal) of over 625 µM, a TGI (ACHN renal) of over 625 µM and a TGI (OVCAR-5 ovarian) of over 625 µM. It also gave a TGI (KM12 colon) of over 625 µM, a TGI (SR leukemia) of 296 µM and a TGI (SNB-75 CNS) of over 625 µM. For the same compound, the TGI (OVCAR-8 ovarian) was over 625 µM, the TGI (UACC-257 melanoma) was over 625 µM and the TGI (HOP-92 NSCLC) was over 625 µM. The TGI (SK-MEL-28 melanoma) was over 625 µM.
